# Reference: patent US7572439B2, “Enzyme disruption of bacterial biofilms” (priority 2002, dated 2009)
# What was measured:
# S. aureus strain SA5 = test: Killing of bacteria in lysostaphin-coated polystyrene wells; format: cell-based; conditions: for CFU (n = 2): Table 13, Polystyrene
# Procedure: Six wells were incubated with 300 μl of either 10 mg/ml, 1 mg/ml or 100 μg/ml of lysostaphin diluted in PBS. All the samples were done in duplicates. The plate was allowed to incubate overnight at 4° C. The following morning the wells were washed with 1 ml of PBS ten times, using vacuum suction to clean out the wells. S. aureus strain SA5 was diluted in PBS to a percent transmittance of 40. A 1:10,000 dilution of this solution was made, and 300 μl was added to each well. The plates were put in a shaking incubator at 75 rpm for two hours at 37° C. After two hours, 40 μl from each well was taken out and plated onto a blood agar plate and put in the incubator overnight at 37° C. The colonies on the plates were counted the following morning.
# Coating of polystyrene wells. Wells were coated with 300 μl of 10 mg/ml, 1 mg/ml or 0.1 mg/ml of lysostaphin diluted in PBS. The plate was incubated overnight at 4° C. Wells were washed with 1 ml of PBS ten times, and washes were removed by vacuum suction. 300 μl of a 5×10^4 CFU/ml solution of S. aureus was added to each well. The plate was shaken at 75 rpm for two hours at 37° C. 40 μl from each well was then removed and streaked onto a blood agar plate and incubated overnight at 37° C.
# SA5 = test: Adherence of bacteria to catheters; format: cell-based, S. aureus
# Procedure: Adherence of Bacteria to Catheters. Lysostaphin coated catheters were placed in 2 ml of a 0.1 mg/ml solution of lysostaphin for 2 hours with shaking at 37° C. to coat the outside of the catheter. They were then washed and placed in a 5×10^4 CFU/ml solution of SA5 and incubated for 3 hours at 37° C. 40 μl of the bacterial solution was streaked on to blood agar plates and incubated at 37° C. overnight. The catheters were incubated in 2 ml TSB overnight at 37° C. and examined for growth. Untreated catheters were washed with 50 ml PBS and then inoculated with 120 μl of a 5×10^6 CFU/ml solution of bacteria and incubated for 2 or 24 hours. The catheter effluent was then streaked onto blood agar plates and placed at 37° C. overnight. The catheters were washed with 50 ml PBS and the last ml of wash was collected, and 100 μl was streaked onto blood agar plates and incubated at 37° C. overnight. The catheters were then incubated in 1 ml TSB at 37° C. overnight and observed for growth.
# S. aureus biofilms = test: Biofilm assay: S. aureus biofilms in 96 well plates or plate inserts, safranin stain or SEM; format: cell-based; conditions: 50 μg/ml in PBS, three hours
# [1] = system: Methicillin-Resistant S. aureus; test: Treatment of established infection in jugular vein catheterized mice; format: in vivo
# Procedure: (§1) Jugular vein catheterized mice (Charles River Labs) were used. The mice were challenged through the tail vein with S. aureus (10^3-10^4CFU, a much lower dose than the 5×10^6 CFU or greater typically necessary to establish an infection in mice not catheterized). Treatment began four days post challenge when infection was established. Lysostaphin was administered through the indwelling catheter in a volume of 200 μ PBS (in the case of methicillin resistant S. aureus, nafcillin was added to the treatment). After the final treatment of the day, 50 μl of a lock solution (50% sterile glucose solution) with lysostaphin (and nafcillin, when used), added at the same concentration as used for treatment, was put in the catheters. Control mice received equal treatments with PBS and lock solution alone.
# (§2) On the day following the last treatment the liver, heart and a portion of the catheter in the heart were harvested. The catheter portions were sonicated to release bacteria.
# [2] = system: Methicillin Sensitive S. aureus; test: as above; format: in vivo
# Procedure: as §1, §2
# [3] = system: biofilms of S. aureus SA113; test: Kinetic effect on established biofilms: absorbance at 650 nm and safranin staining; format: cell-based; conditions: for absorbance of biofilms at 650 nM: 6.25 μg/ml in PBS
# Procedure: Oxacillin and vancomycin have often been used in antibiotic susceptibility studies of S. aureus biofilms. […] Twenty four-hour biofilms in polystyrene 96-well tissue culture plates were treated with serial dilutions of lysostaphin, oxacillin, and vancomycin (FIG. 7).
# In order to examine the kinetic effect of lysostaphin, oxacillin and vancomycin on biofilms, the absorbance of established biofilms in a 96-well tissue culture plate was measured over time (0-3 hrs and 24 hrs). Tissue culture wells containing biofilms of S. aureus SA113 were incubated with serial dilutions of lysostaphin ([…]), oxacillin ([…]), or vancomycin ([…]) for 24 hours, and the absorbance at 650 nm was monitored every 20 minutes for the first 3 hours and then again at 24 hours. The absorbance of the lysostaphin-treated biofilms dropped from approximately 0.35 at time zero to 0.125 after 3 hours of treatment and dropped to near base line (0.04) by 24 hrs when treated with a dose of lysostaphin of 6.25 μg/ml in PBS (FIG. 7). […] Since antimicrobials like oxacillin or vancomycin are effective against actively metabolizing bacteria, a similar experiment was conducted but the biofilms were incubated with the three anti-microbials in bacterial media (TSB). Very similar results were also found when the assay was conducted in TSB rather than PBS.
# The capacity of the three agents to disrupt S. aureus biofilms in polystyrene wells can be visualized by comparing the staining intensity of treated wells versus control (buffer-treated) wells.
# S. epidermidis = test: Killing of bacteria in lysostaphin-coated Angiocath catheters; format: cell-based; conditions: for CFU (n = 2): catheter coating 0.1 mg/ml; for log reduction from the control sample: coated catheters
# Procedure: Coating of Catheters. The needles from the AngioCath catheters were removed and disposed. Using a 1 ml syringe, the catheters were coated with 200 μl of a 0.1 mg/ml solution of lysostaphin. The catheters were incubated for 1 hour, unless otherwise specified, at room temperature. The catheters were then washed with 50 ml of phosphate buffered saline using a peristaltic pump with a flow rate of 1.5 ml/minute. The catheters were then inoculated with 120 μl of a ˜5×10^4 CFU/ml solution of bacteria (diluted in TSB) and incubated for 2 hours at 37° C. The catheter effluent was then streaked onto a blood agar plate and incubated overnight at 37° C.
# [4] = Table 7, MRSA, 20 mg/kg t.i.d. 4 days
substance,measurement,setting,value
lysostaphin,CFU (n = 2),S. aureus strain SA5; coating concentration 0.1 mg/ml,3 CFU
same,CFU (n = 2),S. aureus strain SA5; coating concentration 1 mg/ml,1 CFU
same,CFU (n = 2),S. aureus strain SA5; coating concentration 10 mg/ml,1 CFU
same,log reduction in bacterial counts,S. aureus strain SA5; bacteria added directly to the 0.1 mg/mL coated wells,2.4 log
same,reduction in bacterial counts,S. aureus strain SA5; lysostaphin coated polystyrene wells vs control wells,99.5%
same,"CFU's remaining in lysostaphin coated wells, on average","S. aureus strain SA5; polystyrene wells, 610 CFU's in control wells",3 CFU
same,growth after overnight incubation of catheters in TSB,SA5; after 3 hours in bacterial solution,the catheters remained sterile
same,clearing of bacterial solution by coated catheters,"SA5; catheters coated inside and outside, 5×10^4 CFU/ml SA5, 3 hrs",cleared the solution
same,biofilm disruption (safranin stain),"S. aureus biofilms; S. aureus strain MBT 5040 (MRSA), room temperature",completely disrupted
same,biofilm disruption of lysostaphin-resistant strains (safranin stain),S. aureus biofilms; lysostaphin-resistant S. aureus,failure of lysostaphin to disrupt biofilms
same,"S. aureus recovered, Heart",[1]; [4],0 CFU
same,"S. aureus recovered, Liver",[1]; [4],0 CFU
same,"S. aureus recovered, Heart","[1]; Table 7, MRSA, 40 mg/kg t.i.d. 4 days",0 CFU
same,clearance of the S. aureus infection,[1]; lower doses or different dosing regimens (40 mg/kg once then 5 mg/kg; 3 doses of 15 mg/kg then 5 mg/kg),did not result in complete clearance
same,minimum dose necessary to clear catheters in mice,[1]; three times a day for four days,40 mg/kg
same,"S. aureus biofilm on implanted catheters (SEM, FIG. 6)",[2]; jugular vein catheterized mice after treatment,cleared the S. aureus biofilm from these catheters
same,dose required for clearance of an established catheter infection,"[2]; methicillin sensitive S. aureus, t.i.d. for 4 days",20 mg/kg
same,absorbance of biofilms at 650 nM,[3]; 24 hrs,~0.04
same,absorbance of biofilms at 650 nM,[3]; after 3 hours,0.125
same,absorbance of biofilms at 650 nM,[3]; time zero,approximately 0.35
same,lowest concentration that cleared biofilms (safranin),"[3]; in PBS, 24 hours",0.8 µg/mL
same,effect on absorbance of biofilms,"[3]; in TSB, 24 hours (data not shown)",reduced the absorbance of biofilms to near background
same,effect on absorbance of S. aureus biofilms over time (FIG. 7 legend),"[3]; lysostaphin 6.25 cg/ml, vancomycin 800 cg/ml, oxacillin 400 cg/ml",immediate and continuous drop in the absorbance
same,CFU (n = 2),S. epidermidis; S. epi 380,4 CFU
same,CFU (n = 2),S. epidermidis; S. epi 1175,68 CFU
same,CFU (n = 2),S. epidermidis; S. epi 35984,16 CFU
same,log reduction from the control sample,S. epidermidis; S. epidermidis 1175,1.1 log
same,log reduction from the control sample,S. epidermidis; S. epidermidis ATCC 35984,1.8 log
same,log reduction from the control sample,S. epidermidis; S. epidermidis type 380,2.2 log
